Literature values as cited in US11986479B2 (priority 2022, dated 2024).
Read-outs that look alike come from different tables or passages of the source.

Legend:
[1] = not given; remark: listed apart in the source
[2] = not given; remark: listed apart in the source

With `Sc1ncnc2nc[nH]c12` [Mercaptopurine, 6H-purine-6-thione, 1,7-dihydro-, monohydrate] as the molecule, how does the “patients who experienced diarrhea” value (leukemia patients) read?
The value was 9%.

What about the solubility in ether ([1]; ether) of the same molecule?
Its solubility in ether is “practically insoluble”.

Which solubility in alkali ([1]; solutions of alkali hydroxides / one molar equivalent of alkali) does the source give for `Cn1cnc([N+](=O)[O-])c1Sc1ncnc2nc[nH]c12` [Azathoprine, 1H-Purine, 6-[(1-methyl-4-nitro-1H-imidazol-5-yl)thio]-] here?
Its solubility in alkali is “may be dissolved”.

What about the solubility in water ([1]; water) of the same molecule?
The solubility in water was “insoluble”.

And the “stability in the presence of sulfhydryl compounds” value ([2]; cysteine, glutathione, hydrogen sulfide)?
The value was “Conversion to mercaptopurine also occurs”.

And the stability in solution ([2]; excess sodium hydroxide (0.1N), especially on warming)?
Its stability in solution is “hydrolysis to mercaptopurine occurs”.

And the stability in solution ([2]; neutral or acid pH)?
The stability in solution was “stable”.

Which “diarrhea in list of adverse reactions” value (in vivo) does the source give for `CCN(CC)C(=S)SSC(=S)N(CC)CC` [Disulfiram, bis(diethylthiocarbamoyl) disulfide] here?
Its value is “not mentioned”.

What about the soluble in alcohol ([1]; alcohol) of the same molecule?
The soluble in alcohol was “about 3.8 g in 100 mL”.

What about the soluble in water ([1]; water) of the same molecule?
Its soluble in water is “about 20 mg in 100 mL”.

For `C[C@@H]1C[C@H]2[C@@H]3CCC4=CC(=O)C=C[C@]4(C)[C@@]3(F)[C@@H](O)C[C@]2(C)[C@@]1(O)C(=O)CO` [Dexamethasone, 9-fluoro-11β,17,21-trihydroxy-16α-methylpregna-1,4-diene-3,20-dione], which solubility in water ([1]; water) is on record?
The solubility in water was “practically insoluble”.

What about the stability in air ([2]; air) of the same molecule?
Its stability in air is “stable”.
